Source: patent US20100297194A1, “FORMULATION FOR ORAL ADMINISTRATION OF APOPTOSIS PROMOTER” (priority 2009, published 2010)
Where a name gives a salt, the structure may show the parent alone.

Tests used:
Type in all cases: physicochemical
[1] = drug solubility in ternary excipient systems (Example 2); design: key: ✓: vehicle miscible, or drug fully dissolved in vehicle; conditions: 10% salt, 20% free base
From the text: (§1) Solvents evaluated included Labrafil M 1944 CS™, Imwitor 742™ oleic acid, Capmul PG-8™, Capmul PG-12™, Lauroglycol 90™ and Phosal 53 MCT™. Surfactants evaluated included Tween™ 80, Cremophor RH40™, Gelucire 44/14™ and Labrasol™.

[2] = solubility in lipid solvents (Example 1); conditions: ambient conditions, listed as ABT-263 bis-HCl salt;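 also: solubility in mg/g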
Description: Solubility of ABT-263 parent (free base, crystalline Form I) and ABT-263 bis-HCl salt was tested in a variety of lipid solvents and solvent mixtures in ambient conditions. “PE-91” is Phosal 53 MCT™+ethanol, 9:1 by volume. “LOT-343” is Labrafil M 1944 CS™+oleic acid+Tween 80™, 30:40:30 by weight.
In some cases, indicated in Table 4 by an asterisk (*), solubility was initially high but precipitation occurred upon standing.

[3] = drug solubility in ternary excipient systems (Example 2); design: key: ✓: vehicle miscible, or drug fully dissolved in vehicle; X: vehicle immiscible or miscible but turbid, or residual solids present (due to undissolved drug or precipitation); conditions: 10% salt, 20% free base
From the text: as §1

- ABT-263 solubility ([1]; C8LL (Capmul PG-8/Labrafil M 1944 CS/Labrasol) 40:40:20 by weight): ✓
- ABT-263 solubility ([1]; C12LT (Capmul PG-12/Labrafil M 1944 CS/Tween 80) 30:40:30 by weight): ✓
- ABT-263 solubility ([1]; C12LT (Capmul PG-12/Labrafil M 1944 CS/Tween 80) 35:40:25 by weight): ✓
- ABT-263 solubility ([1]; C12LT (Capmul PG-12/Labrafil M 1944 CS/Tween 80) 40:30:30 by weight): ✓
- ABT-263 solubility ([1]; C12LT (Capmul PG-12/Labrafil M 1944 CS/Tween 80) 45:30:25 by weight): ✓
- ABT-263 solubility ([1]; ILC (Imwitor 742/Labrafil M 1944 CS/Cremophor RH40) 50:30:20 by weight, listed as ABT-263 bis-HCl salt): ✓
- ABT-263 solubility ([1]; ILC (Imwitor 742/Labrafil M 1944 CS/Cremophor RH40) 50:40:10 by weight, listed as ABT-263 bis-HCl salt): ✓
- ABT-263 solubility ([1]; ILC (Imwitor 742/Labrafil M 1944 CS/Cremophor RH40) 60:30:10 by weight, listed as ABT-263 bis-HCl salt): ✓
- ABT-263 solubility ([1]; ILL (Imwitor 742/Labrafil M 1944 CS/Labrasol) 40:40:20 by weight, listed as ABT-263 bis-HCl salt): ✓
- ABT-263 solubility ([1]; ILL (Imwitor 742/Labrafil M 1944 CS/Labrasol) 50:30:20 by weight, listed as ABT-263 bis-HCl salt): ✓
- ABT-263 solubility ([1]; ILL (Imwitor 742/Labrafil M 1944 CS/Labrasol) 50:40:10 by weight, listed as ABT-263 bis-HCl salt): ✓
- ABT-263 solubility ([1]; ILL (Imwitor 742/Labrafil M 1944 CS/Labrasol) 60:30:10 by weight, listed as ABT-263 bis-HCl salt): ✓
- ABT-263 solubility ([1]; LIT (Labrafil M 1944 CS/Imwitor 742/Tween 80) 30:40:30 by weight, listed as ABT-263 bis-HCl salt): ✓
- ABT-263 solubility ([1]; LIT (Labrafil M 1944 CS/Imwitor 742/Tween 80) 40:30:30 by weight, listed as ABT-263 bis-HCl salt): ✓
- ABT-263 solubility ([1]; LLL (Lauroglycol 90/Labrafil M 1944 CS/Labrasol) 40:40:20 by weight): ✓
- ABT-263 solubility ([1]; LLL (Lauroglycol 90/Labrafil M 1944 CS/Labrasol) 50:30:20 by weight): ✓
- ABT-263 solubility ([1]; LLL (Lauroglycol 90/Labrafil M 1944 CS/Labrasol) 50:40:10 by weight, listed as ABT-263 bis-HCl salt): ✓
- ABT-263 solubility ([1]; LLL (Lauroglycol 90/Labrafil M 1944 CS/Labrasol) 60:30:10 by weight, listed as ABT-263 bis-HCl salt): ✓
- ABT-263 solubility ([1]; LOT (Labrafil M 1944 CS/oleic acid/Tween 80) 30:40:30 by weight): ✓
- ABT-263 solubility ([1]; LOT (Labrafil M 1944 CS/oleic acid/Tween 80) 30:45:25 by weight): ✓
- ABT-263 solubility ([1]; LOT (Labrafil M 1944 CS/oleic acid/Tween 80) 40:30:30 by weight): ✓
- ABT-263 solubility ([1]; LOT (Labrafil M 1944 CS/oleic acid/Tween 80) 40:35:25 by weight): ✓
- ABT-263 solubility ([1]; OLL (oleic acid/Labrafil M 1944 CS/Labrasol) 40:40:20 by weight): ✓
- ABT-263 solubility ([1]; OLL (oleic acid/Labrafil M 1944 CS/Labrasol) 50:30:20 by weight): ✓
- ABT-263 solubility ([1]; OLL (oleic acid/Labrafil M 1944 CS/Labrasol) 50:40:10 by weight): ✓
- ABT-263 solubility ([1]; OLL (oleic acid/Labrafil M 1944 CS/Labrasol) 60:30:10 by weight): ✓
- Solubility ([2]; in Capmul MCM): >321 mg/g
- Solubility ([2]; in Capmul PG-8): <43 mg/g
- Solubility ([2]; in Capmul PG-12): <39 mg/g
- Solubility ([2]; in Captex 300): <52 mg/g
- Solubility ([2]; in Imwitor 742): >245 mg/g
- Solubility ([2]; in Labrafil M 1944 CS): <45 mg/g
- Solubility ([2]; in Labrafil M 2125 CS): <44 mg/g
- Solubility ([2]; in Labrasol): >292 mg/g
- Solubility ([2]; in Lipoid S75 MCT): 48.9 mg/g
- Solubility ([2]; in Miglyol 810): <84 mg/g
- Solubility ([2]; in PE-91 (Phosal 53 MCT+ethanol 9:1 by volume)): 89 mg/g
- Solubility ([2]; in PEG-400): >278 mg/g
- Solubility ([2]; in Tween 20): >176 mg/g
- Solubility ([2]; in Tween 80): >125 mg/g
- Solubility ([2]; in castor oil): >78.8 mg/g
- Solubility ([2]; in corn oil): <104 mg/g
- Solubility ([2]; in oleic acid): <498 mg/g
- Solubility ([2]; in poloxamer 124): <41 mg/g
- Solubility ([2]; in propylene glycol): >337 mg/g
- Solubility ([2]; in sesame oil): <80 mg/g
- ABT-263 solubility ([3]; C8LL (Capmul PG-8/Labrafil M 1944 CS/Labrasol) 50:30:20 by weight): X
- ABT-263 solubility ([3]; C8LL (Capmul PG-8/Labrafil M 1944 CS/Labrasol) 50:40:10 by weight): X
- ABT-263 solubility ([3]; C8LL (Capmul PG-8/Labrafil M 1944 CS/Labrasol) 60:30:10 by weight): X
- ABT-263 solubility ([3]; C8LT (Capmul PG-8/Labrafil M 1944 CS/Tween 80) 30:40:30 by weight): X
- ABT-263 solubility ([3]; C8LT (Capmul PG-8/Labrafil M 1944 CS/Tween 80) 35:40:25 by weight): X
- ABT-263 solubility ([3]; C8LT (Capmul PG-8/Labrafil M 1944 CS/Tween 80) 40:30:30 by weight): X
- ABT-263 solubility ([3]; C8LT (Capmul PG-8/Labrafil M 1944 CS/Tween 80) 45:30:25 by weight): X
SMILES: CC1(C)CCC(c2ccc(Cl)cc2)=C(CN2CCN(c3ccc(C(=O)NS(=O)(=O)c4ccc(N[C@H](CCN5CCOCC5)CSc5ccccc5)c(S(=O)(=O)C(F)(F)F)c4)cc3)CC2)C1 [ABT-263 bis-HCl]
